Source: PMC5927802, “Pharmacokinetics, safety, and tolerability of the 2‐ and 3‐direct‐acting antiviral combination of AL‐335, odalasvir, and simeprevir in healthy subjects” (Pharmacology Research & Perspectives, 2018)
Where two headings read alike, the source gives them in different places. Blank lines part the entries; values can stand above or below the molecule they belong to.

Tests used:
[1] = Plasma pharmacokinetics, Phase I open‐label two‐group fixed‐sequence drug‐drug interaction study; settings: for AUC0‐24 h LSM ratio / C max LSM ratio: point estimate (90% CI); for AUC: AUC0‐24 h; for Tmax: T max
Description: This was an open‐label, two‐group, fixed‐sequence study conducted at a single study center in Rennes, France (Biotrial). A two‐group, fixed‐sequence study design was chosen as this was deemed to be the most efficient way to evaluate the effect of simeprevir with/without odalasvir on AL‐335; and vice versa (Group 1) and the effect of odalasvir with/without simeprevir on AL‐335; and vice versa (Group 2). Thus, this study design had the potential to gather both 2‐way and 3‐way DDIs. For both groups, the study consisted of a screening period, a study period, and two follow‐up visits. The study was authorized by the French National Agency for the Safety of Medicine and Health Products (ANSM) and was approved by an Independent Ethics Committee (Comité de Protection des Personnes [CPP] Ouest VI, Brest, France; Reference CPP Ouest 6–CPP 888/MS1), and was conducted in accordance with the principles of the Declaration of Helsinki and International Conference on Harmonization. All subjects provided written informed consent to participate. Drug and molecular target nomenclature in this manuscript conforms to the British Journal of Pharmacology's Concise Guide to Pharmacology 2017/18.19
Subjects in Group 1 received simeprevir 150 mg QD on days 4‐23, odalasvir 150 mg (loading dose) on day 14, odalasvir 50 mg QD on days 15‐23, and AL‐335 800 mg QD on days 1‐3, 11‐13, and 21‐23. Subjects in Group 2 received odalasvir 150 mg (loading dose) on day 4, odalasvir 50 mg QD on days 5‐23, simeprevir 150 mg QD on days 14‐23, and AL‐335 800 mg QD on days 1‐3, 11‐13, and 21‐23. […] A minimum of 10 days was considered sufficient for both odalasvir and simeprevir to reach steady‐state.
Subjects were assigned sequentially to Group 1 then to Group 2 after confirming eligibility.
As this was an […] pharmacokinetic study, blood samples for pharmacokinetic analysis were collected predose and at 0.25, 0.5, 1, 2, 3, 4, 6, 8, 10, 12, and 24 hours postdose on days 3, 13, and 23 for determination of AL‐335, ALS‐022399, and ALS‐022227 plasma concentrations (Groups 1 and 2). For simeprevir, blood samples for determination of simeprevir plasma concentrations were taken at the same time points but on days 10, 13, 20, and 23 (Group 1) or days 20 and 23 (Group 2). Blood samples for the determination of odalasvir plasma concentrations were collected predose and at 1, 3, 4, 5, 6, 7, 8, 9, 10, 12, 16, and 24 hours postdose on days 20 and 23 (Group 1) or days 10, 13, 20, and 23 (Group 2), with two further samples also collected on the day 7 and day 28 follow‐up assessments (both groups).
Plasma concentrations of AL‐335, ALS‐022399, ALS‐022227, odalasvir, and simeprevir were determined using validated liquid chromatography‐tandem mass spectrometry methods. Dichlorvos solution was added to blood samples from AL‐335‐treated subjects to stabilize AL‐335 and its metabolites (25 μL of 5 mmol/L dichlorvos into 1 mL blood). The lower limit of quantification was 1 ng/mL, 2 ng/mL, and 5 ng/mL for AL‐335, ALS‐022399, and ALS‐022227, respectively, 1 ng/mL for odalasvir, and 2 ng/mL for simeprevir.
Pharmacokinetic analyses were performed on all subjects with available profiles who received at least one dose of study drug without any protocol deviation affecting pharmacokinetic evaluation. […] Secondary parameters were last observed plasma concentration, apparent elimination half‐life, time of the maximum observed plasma concentration (T max), and time to last measurable plasma concentration (T last).

P‐glycoprotein = settings: cited from earlier work
OATP1B1/1B3 = settings: cited from earlier work
[2] = tested on: CYPs 1A2, 2B6, 2C8, 2C9, 2C19, 2D6, and 3A4; parameters: method as in data on file; settings: ref data on file; cited from earlier work
[3] = tested on: host polymerases, including the mitochondrial RNA polymerase; settings: cited from earlier work
[4] = tested on: breast cancer resistance protein (BCRP); settings: ref data on file; cited from earlier work
[5] = in vivo; cited from earlier work
[6] = Group 1 Day 3, AL‐335 alone, mean (SD)
[7] = Group 1 Day 13, AL‐335 + SMV, mean (SD)
[8] = Group 1 Day 23, AL‐335 + ODV + SMV versus AL‐335 alone
[9] = Group 1 Day 23, AL‐335 + ODV + SMV, mean (SD)
[10] = Group 2 Day 3, AL‐335 alone, mean (SD)
[11] = Group 2 Day 13, AL‐335 + ODV, mean (SD)
[12] = Group 2 Day 23, AL‐335 + ODV + SMV versus AL‐335 alone
[13] = Group 2 Day 23, AL‐335 + ODV + SMV, mean (SD)

difference in T max between any of the treatment combinations ([1]; human, in vivo): No clinically relevant difference
t 1/2 ([1]; human, in vivo): 6.0 (0.5) h
Structure (SMILES): C[C@]1(O)[C@H](n2ccc(=O)[nH]c2=O)O[C@](F)(CO)[C@H]1O [ALS‐022227]
P‐glycoprotein substrate / inhibitor status (P‐glycoprotein): neither substrates nor inhibitors
OATP1B1/1B3 substrate / inhibitor status (OATP1B1/1B3): neither substrates nor inhibitors

Structure (SMILES): CC(C)OC(=O)[C@H](C)N[P@](=O)(OC[C@@]1(F)O[C@@H](n2ccc(=O)[nH]c2=O)[C@](C)(O)[C@@H]1O)Oc1ccccc1 [AL‐335]
difference in T max between any of the treatment combinations ([1]; AL‐335 alone or with odalasvir and/or simeprevir): No clinically relevant difference
C last [1, 6]: 6 (8) ng/mL
C max [1, 6]: 162 (77) ng/mL
T last ([1]; Group 1 Day 3, AL‐335 alone, median (range)): 6.00 (4.00‐6.00) h
C last [1, 7]: 3 (2) ng/mL
C max [1, 7]: 376 (186) ng/mL
T last ([1]; Group 1 Day 13, AL‐335 + SMV, median (range)): 8.00 (6.00‐10.00) h
AUC0‐24 h LSM ratio [1, 8]: 6.92 (5.46‐8.77)
C max LSM ratio [1, 8]: 4.60 (3.68‐5.75)
C last [1, 9]: 3 (1) ng/mL
C max [1, 9]: 747 (340) ng/mL
T last ([1]; Group 1 Day 23, AL‐335 + ODV + SMV, median (range)): 8.00 (6.00‐10.08) h
C last [1, 10]: 3 (2) ng/mL
C max [1, 10]: 151 (72) ng/mL
T last ([1]; Group 2 Day 3, AL‐335 alone, median (range)): 6.00 (4.00‐8.00) h
C last [1, 11]: 2 (1) ng/mL
C max [1, 11]: 516 (259) ng/mL
T last ([1]; Group 2 Day 13, AL‐335 + ODV, median (range)): 8.00 (4.00‐12.00) h
AUC0‐24 h LSM ratio [1, 12]: 8.23 (6.26‐10.82)
C max LSM ratio [1, 12]: 6.30 (4.93‐8.05)
C last [1, 13]: 2 (1) ng/mL
C max [1, 13]: 950 (472) ng/mL
T last ([1]; Group 2 Day 23, AL‐335 + ODV + SMV, median (range)): 10.00 (8.00‐12.03) h
AUC ([1]; human, in vivo, 800 mg, Group 1 Day 3, AL‐335 alone, mean (SD)): 295 ng·h/mL
AUC ([1]; human, in vivo, 800 mg, Group 2 Day 3, AL‐335 alone, mean (SD)): 324 ng·h/mL
Tmax ([1]; human, in vivo, 800 mg, Group 1 Day 3, AL‐335 alone, median (range)): 2 h
Tmax ([1]; human, in vivo, 800 mg, Group 2 Day 3, AL‐335 alone, median (range)): 2 h
half-life ([1]; human, in vivo, 800 mg, t 1/2, Group 1 Day 3, AL‐335 alone, mean (SD)): 0.61 h
half-life ([1]; human, in vivo, 800 mg, t 1/2, Group 2 Day 3, AL‐335 alone, mean (SD)): 0.69 h
AUC ([1]; human, in vivo, Group 1 Day 13, AL‐335 + SMV, mean (SD)): 1000 ng·h/mL
AUC ([1]; human, in vivo, Group 1 Day 23, AL‐335 + ODV + SMV, mean (SD)): 2080 ng·h/mL
AUC ([1]; human, in vivo, Group 2 Day 13, AL‐335 + ODV, mean (SD)): 1330 ng·h/mL
AUC ([1]; human, in vivo, Group 2 Day 23, AL‐335 + ODV + SMV, mean (SD)): 2920 ng·h/mL
Tmax ([1]; human, in vivo, Group 1 Day 13, AL‐335 + SMV, median (range)): 2 h
Tmax ([1]; human, in vivo, Group 1 Day 23, AL‐335 + ODV + SMV, median (range)): 2 h
Tmax ([1]; human, in vivo, Group 2 Day 13, AL‐335 + ODV, median (range)): 2 h
Tmax ([1]; human, in vivo, Group 2 Day 23, AL‐335 + ODV + SMV, median (range)): 3 h
half-life ([1]; human, in vivo, t 1/2, Group 1 Day 13, AL‐335 + SMV, mean (SD)): 0.64 h
half-life ([1]; human, in vivo, t 1/2, Group 1 Day 23, AL‐335 + ODV + SMV, mean (SD)): 0.69 h
half-life ([1]; human, in vivo, t 1/2, Group 2 Day 13, AL‐335 + ODV, mean (SD)): 0.62 h
half-life ([1]; human, in vivo, t 1/2, Group 2 Day 23, AL‐335 + ODV + SMV, mean (SD)): 0.84 h
AUC 0‐24 h increase ([1]; odalasvir given alone with AL‐335 (abstract)): 3 fold
AUC 0‐24 h increase ([1]; simeprevir given alone with AL‐335 (abstract)): 4 fold
inhibition potential for CYPs [2]: low inhibition potential
interaction with host polymerases [3]: do not interact
BCRP substrate status [4]: substrate
OATP1B1/1B3 substrate / inhibitor status (OATP1B1/1B3; ref data on file): neither a substrate nor an inhibitor

AUC0‐24 h ([1]; human, in vivo): 8694 (3956) ng.h/mL
C max ([1]; human, in vivo): 582 (221) ng/mL
T max ([1]; human, in vivo): 5.00 (5.0‐7.0) h
increase in exposure (C max, C min, AUC0‐24 h) ([1]; human, in vivo): 1.5‐ to 2
C min ([1]; in vivo): 235 (132) ng/mL
Clast ([1]; in vivo): 287 (150) ng/mL
T last ([1]; in vivo): 23.9 (23.9‐24.0) h
Structure (SMILES): COC(=O)N[C@H](C(=O)N1[C@H](c2nc3cc(-c4cc5ccc4CCc4ccc(c(-c6ccc7[nH]c([C@@H]8C[C@@H]9CCCC[C@@H]9N8C(=O)[C@@H](NC(=O)OC)C(C)C)nc7c6)c4)CC5)ccc3[nH]2)C[C@@H]2CCCC[C@@H]21)C(C)C [odalasvir]
clearance route and metabolism [5]: primarily cleared by biliary secretion and undergoes minimal metabolism
drug‐drug interactions (DDIs) [5]: No clinically significant drug‐drug interactions
terminal elimination half‐life [5]: approximately 250 hours
